Test results published in patent publication US20220009931A1, “NOVEL UREA 6,7-DIHYDRO-4H-PYRAZOLO[1,5-A]PYRAZINES ACTIVE AGAINST THE HEPATITIS B VIRUS (HBV)” (AICURIS GMBH & CO. KG, priority 2018, published 2022).
pEC50: −log10 of the molar value.

test system: HBV; conditions: Hepatitis B virus, HePAD38, 144 h, read-out: Cell Activity

SMILES | pEC50
O=C(Nc1ccc(F)c(Cl)c1)N1CCn2nc(NCC3(O)CCC3)cc2C1 [Example 33, N-(3-chloro-4-fluorophenyl)-2-{[(1-hydroxycyclobutyl)methyl]amino}-4H,5H,6H,7H-pyrazolo[1,5-a]pyrazine-5-carboxamide] | > 6.00
COC1(CNc2cc3n(n2)CCN(C(=O)Nc2ccc(F)c(Cl)c2)C3)CCC1 [Example 18, N-(3-chloro-4-fluorophenyl)-2-{[(1-methoxycyclobutyl)methyl]amino}-4H,5H,6H,7H-pyrazolo[1,5-a]pyrazine-5-carboxamide] | > 6.00
COC1CCC(Nc2cc3n(n2)CCN(C(=O)Nc2ccc(F)c(Cl)c2)C3)CC1 (centres unmarked) [Example 19, N-(3-chloro-4-fluorophenyl)-2-[(4-methoxycyclohexyl)amino]-4H,5H,6H,7H-pyrazolo[1,5-a]pyrazine-5-carboxamide] | > 6.00
O=C(Nc1ccc(F)c(Cl)c1)N1CCn2nc(NC3(c4ccccc4)CC3)cc2C1 [Example 27, N-(3-chloro-4-fluorophenyl)-2-[(1-phenylcyclopropyl)amino]-4H,5H,6H,7H-pyrazolo[1,5-a]pyrazine-5-carboxamide] | > 6.00
O=C(Nc1ccc(F)c(Cl)c1)N1CCn2nc(N[C@H]3CC[C@H](O)CC3)cc2C1 [Example 35, N-(3-chloro-4-fluorophenyl)-2-{[(1r,4r)-4-hydroxycyclohexyl]amino}-4H,5H,6H,7H-pyrazolo[1,5-a]pyrazine-5-carboxamide] | 5.00 to 6.00
O=C(Nc1ccc(F)c(Cl)c1)N1CCn2nc(NCC3CCOC3)cc2C1 (centres unmarked) [Example 10, N-(3-chloro-4-fluorophenyl)-2-{[(oxolan-3-yl)methyl]amino}-4H,5H,6H,7H-pyrazolo[1,5-a]pyrazine-5-carboxamide] | 5.00 to 6.00
O=C(Nc1cc2n(n1)CCN(C(=O)Nc1ccc(F)c(Cl)c1)C2)C1CCN(c2ccncc2)CC1 [Example 28, N-{5-[(3-chloro-4-fluorophenyl)carbamoyl]-4H,5H,6H,7H-pyrazolo[1,5-a]pyrazin-2-yl}-1-(pyridin-4-yl)piperidine-4-carboxamide] | > 6.00
O=C(Nc1cc2n(n1)CCN(C(=O)Nc1ccc(F)c(Cl)c1)C2)C1CCOC1 (centres unmarked) [Example 9, N-(3-chloro-4-fluorophenyl)-2-(oxolane-3-amido)-4H,5H,6H,7H-pyrazolo[1,5-a]pyrazine-5-carboxamide] | > 6.00
O=C(Nc1ccc(F)c(Cl)c1)N1CCn2nc(NCC3CCOCC3)cc2C1 [Example 6, N-(3-chloro-4-fluorophenyl)-2-{[(oxan-4-yl)methyl]amino}-4H,5H,6H,7H-pyrazolo[1,5-a]pyrazine-5-carboxamide] | 5.00 to 6.00
CC(CO)CNc1cc2n(n1)CCN(C(=O)Nc1ccc(F)c(Cl)c1)C2 (centres unmarked) [Example 23, N-(3-chloro-4-fluorophenyl)-2-[(3-hydroxy-2-methylpropyl)amino]-4H,5H,6H,7H-pyrazolo[1,5-a]pyrazine-5-carboxamide] | 5.00 to 6.00
CC1Cn2nc(N)cc2CN1C(=O)Nc1ccc(F)c(Cl)c1 (centres unmarked) [Example 7, 2-amino-N-(3-chloro-4-fluorophenyl)-6-methyl-4H,5H,6H,7H-pyrazolo[1,5-a]pyrazine-5-carboxamide] | 5.00 to 6.00
O=C(Nc1ccc(F)c(Cl)c1)N1CCn2nc(NC3CCC(O)CC3)cc2C1 (centres unmarked) [Example 2, N-(3-chloro-4-fluorophenyl)-2-[(4-hydroxycyclohexyl)amino]-4H,5H,6H,7H-pyrazolo[1,5-a]pyrazine-5-carboxamide] | > 6.00
O=C(Nc1ccc(F)cc1)N1CCn2nc(NS(=O)(=O)C3(CO)CC3)cc2C1 [Example 14, N-(4-fluorophenyl)-2-[1-(hydroxymethyl)cyclopropanesulfonamido]-4H,5H,6H,7H-pyrazolo[1,5-a]pyrazine-5-carboxamide] | > 4.00
CC(Nc1cc2n(n1)CCN(C(=O)Nc1ccc(F)c(Cl)c1)C2)C1CCOC1 (centres unmarked) [Example 26, N-(3-chloro-4-fluorophenyl)-2-{[1-(oxolan-3-yl)ethyl]amino}-4H,5H,6H,7H-pyrazolo[1,5-a]pyrazine-5-carboxamide] | 5.00 to 6.00
CC(=O)Nc1cc2n(n1)CCN(C(=O)Nc1ccc(F)c(Cl)c1)C2 [Example 5, N-(3-chloro-4-fluorophenyl)-2-acetamido-4H,5H,6H,7H-pyrazolo[1,5-a]pyrazine-5-carboxamide] | > 6.00
O=C(Nc1ccc(F)c(Cl)c1)N1CCn2nc(NS(=O)(=O)C3(CO)CC3)cc2C1 [Example 13, N-(3-chloro-4-fluorophenyl)-2-[1-(hydroxymethyl)cyclopropanesulfonamido]-4H,5H,6H,7H-pyrazolo[1,5-a]pyrazine-5-carboxamide] | > 6.00
O=C(Nc1cc2n(n1)CCN(C(=O)Nc1ccc(F)c(Cl)c1)C2)C1CCN(C2CC2)CC1 [Example 31, N-{5-[(3-chloro-4-fluorophenyl)carbamoyl]-4H,5H,6H,7H-pyrazolo[1,5-a]pyrazin-2-yl}-1-cyclopropylpiperidine-4-carboxamide] | > 6.00
CC(C)(CO)CNc1cc2n(n1)CCN(C(=O)Nc1ccc(F)c(Cl)c1)C2 [Example 17, N-(3-chloro-4-fluorophenyl)-2-[(3-hydroxy-2,2-dimethylpropyl)amino]-4H,5H,6H,7H-pyrazolo[1,5-a]pyrazine-5-carboxamide] | > 6.00
CC1Cn2nc(NCC3CCOC3)cc2CN1C(=O)Nc1ccc(F)c(Cl)c1 (centres unmarked) [Example 4] | 5.00 to 6.00
CC1(CNc2cc3n(n2)CCN(C(=O)Nc2ccc(F)c(Cl)c2)C3)CCOC1 (centres unmarked) [Example 20, N-(3-chloro-4-fluorophenyl)-2-{[(3-methyloxolan-3-yl)methyl]amino}-4H,5H,6H,7H-pyrazolo[1,5-a]pyrazine-5-carboxamide] | > 6.00
O=C(Nc1ccc(F)c(Cl)c1)N1CCn2nc(NS(=O)(=O)C3CC3)cc2C1 [Example 12, N-(3-chloro-4-fluorophenyl)-2-cyclopropanesulfonamido-4H,5H,6H,7H-pyrazolo[1,5-a]pyrazine-5-carboxamide] | > 6.00
CC1Cn2nc(NC(=O)C3CCOC3)cc2CN1C(=O)Nc1ccc(F)c(Cl)c1 (centres unmarked) [Example 3, N-(3-chloro-4-fluorophenyl)-6-methyl-2-(oxolane-3-amido)-4H,5H,6H,7H-pyrazolo[1,5-a]pyrazine-5-carboxamide] | > 6.00
O=C(Nc1ccc(F)c(Cl)c1)N1CCn2nc(NCC3(CO)CCC3)cc2C1 [Example 21, N-(3-chloro-4-fluorophenyl)-2-({[1-(hydroxymethyl)cyclobutyl]methyl}amino)-4H,5H,6H,7H-pyrazolo[1,5-a]pyrazine-5-carboxamide] | > 6.00
O=C(Nc1cc2n(n1)CCN(C(=O)Nc1ccc(F)c(Cl)c1)C2)C1CCNC(C(F)(F)F)C1 (centres unmarked) [Example 29, N-{5-[(3-chloro-4-fluorophenyl)carbamoyl]-4H,5H,6H,7H-pyrazolo[1,5-a]pyrazin-2-yl}-2-(trifluoromethyl)piperidine-4-carboxamide] | > 6.00
COC1(CNc2cc3n(n2)CCN(C(=O)Nc2ccc(F)c(Cl)c2)C3)CCOC1 (centres unmarked) [Example 25, N-(3-chloro-4-fluorophenyl)-2-{[(3-methoxyoxolan-3-yl)methyl]amino}-4H,5H,6H,7H-pyrazolo[1,5-a]pyrazine-5-carboxamide] | 5.00 to 6.00
O=C(Nc1ccc(F)c(Cl)c1)N1CCn2nc(N[C@@H]3CCC[C@H](O)C3)cc2C1 [Example 34, N-(3-chloro-4-fluorophenyl)-2-{[(1R,3S)-3-hydroxycyclohexyl]amino}-4H,5H,6H,7H-pyrazolo[1,5-a]pyrazine-5-carboxamide] | 5.00 to 6.00
